According to paper PMC11892739, “Site-specific molecular glues for the 14-3-3/Tau pS214 protein–protein interaction via reversible covalent imine tethering” (RSC Medicinal Chemistry, 2025):
Square brackets hold non-standard residues; d marks the D form. Peptide text beside a SMILES is read from it. pS = N[C@@H](COP(=O)(O)O)C(=O)O

Target: T1, 14-3-3ζ/Tau pS2 peptide interaction (Homo sapiens, UniProt P63104)
T1 construct: made in house; host or cells: NiCo21 (DE3) E. coli
T1 sequence (P63104 1-245): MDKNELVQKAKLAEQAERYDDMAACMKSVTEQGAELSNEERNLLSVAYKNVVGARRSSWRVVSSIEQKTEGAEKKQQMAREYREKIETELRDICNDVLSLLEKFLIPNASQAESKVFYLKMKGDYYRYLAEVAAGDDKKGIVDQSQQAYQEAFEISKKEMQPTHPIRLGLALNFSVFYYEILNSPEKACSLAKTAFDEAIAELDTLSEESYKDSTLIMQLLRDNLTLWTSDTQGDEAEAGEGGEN
Assay: Fluorescence anisotropy 14-3-3ζ titration in the presence of 250 μM compound and Tau pS2 peptide
Assay type: binding
Conditions: 250 μM compound; apparent KD compared to internal DMSO reference
Description: On the other hand, the PPI stabilizing potency of series 1 compounds was highly dependent on the position and chemical property of the substituent. […] The compound screen for these compounds was further complemented by 14-3-3ζ titration assays in the presence of a constant concentration of compound (250 μM) and Tau pS2 peptide (10 nM) (Fig. 3c, ESI ^† Fig. S6).
This statement is strengthened by the diminished stabilizing activity when shifting the more polar chloro substituent from the para (14) to the ortho (5) to the meta position (8), respectively. […]
chromatography (HisTrap high performance cartridges, Cytiva). Typically two 5 mL columns were used for a 2 L culture in which the lysate was loaded on the column, washed with 10 CV wash buffer (50 mM Hepes, pH 8.0, 300 mM NaCl, 25 mM imidazole, 2 mM βME), and eluted with several fractions (2-4 CV) of elution buffer (50 mM Hepes, pH 8.0, 300 mM NaCl, 250 mM imidazole, 2 mM βME). Fractions containing the 14-3-3 protein were combined and dialyzed into 25 mM HEPES pH 8.0, 200 mM NaCl, 10 mM MgCl2, 2 mM βME, followed by dialysis into 25 mM HEPES, 100 mM NaCl, 10 mM MgCl2, 500 μM TCEP (adjusted to pH 8.0). Dialyzed protein was concentrated to ∼40 mg/mL, analyzed by Q -Tof LC/MS, and aliquots were flash -frozen for storage at −80 °C. For 14 -3-3σ∆c, 1 mg TEV per 100 mg purified protein was added to the dialysis to remove the purification tag. The cleaved sample was then again loaded on a 10 mL Ni-NTA column to separate the cleaved product from the expression tag and residual uncleaved protein. The flowthrough was loade d on a Superdex 75 pg 16/60 size exclusion column (GE Life Sciences) using 25 mM HEPES, 100 mM NaCl, 10 mM MgCl2, 500 μM TCEP (adjusted to pH = 8.0) as running buffer. Fractions containing the 14 -3-3 protein were pooled and concentrated to ∼60 mg/mL, analyzed Q -Tof LC/MS, and aliquots were flash -frozen for storage at −80°C.
(§1) Fluorescence Anisotropy – compound titration
(§2) Compound titration assays were performed by titrating compounds (in 1% DMSO, starting at 500 μM) in a 2-fold dilution series to preformed complex of fluorescein -labeled Tau pS2 (10 nM) and 14 -3-3ζ (100 nM) (which represents approximately 20% bound Tau pS2 peptide to 14 -3-3ζ to allow further complex formation by addition of fragments 1) in FA buffer (10 mM HEPES pH 7.4, 150 mM NaCl, 50 µM TCEP, 0.1% (v/v) Tween20, 0.1% (w/v) BSA). Dilution series were made in polystyrene low -volume 384 -well plates (Corning #4514, Black Round Bottom). Measurements were performed directly after plate preparation, using a Tecan SPARK plate reader at room temperature ( λex: 485±20 nm; λem: 535±25 nm; mirror: automatic; flashes: 30; settle time: 1 ms; gain: optimal; Z -position: calculated from well). Wells containing only fluorescein labelled peptide were used to set as G -factor calibrated from these wells. All data were analyzed using GraphPad Prism (10.0.1) and fitted with a four -parameter logistic model (4PL) to determine binding affinities (dissociation constant, KD). All data shown is background corrected for the signal without 14 -3-3ζ and the mean and standard deviation of technical duplicate is plotted, assay performed in a scientific duplicate for hit compounds.
Fluorescence Anisotropy – 14-3-3 titrations in the presence of compound To characterize the affinity of the Tau peptides for 14-3-3 in the presence of compound, 14-3-3ζ or γ was titrated in a 2-fold dilution series starting at 400 (for the 14-3-3ζ titrations to Tau pS2) or 800 (for the 14-3-3γ titrations to Tau pS214 or pS324) µM. 14-3-3 was added to 10 nM of fluorescein-labeled peptide (Tau pS2, Tau pS214 or Tau pS324) in the presence of 250 µM compound (1% DMSO). The assays were performed in a similar way as described above. Data shown is the average and standard deviation of a technical duplicate, top plateau corrected where needed, assay performed in a scientific duplicate.
Fluorescence Anisotropy – peptide screen […]

| SMILES | SF250μM (stabilization factor) |
| --- | --- |
| O=Cc1ccc(-n2ccnc2-c2cccc3cccnc23)cc1Br [Compound 33] | 4.3 |
| COc1ccc(-c2nc3ccccc3n2-c2ccc(C=O)c(Br)c2)cc1 [Compound 29] | 8.3 |
| O=Cc1ccc(-n2ccnc2-c2ccccc2)cc1C(F)(F)F [Compound 27] | 6.1 |
| O=Cc1ccc(-n2ccnc2-c2ccccc2)cc1I [Compound 26] | 1.8 |
| O=Cc1ccc(-n2ccnc2-c2ccccc2)cc1Cl [Compound 25] | 15 |

More lines, now with the values ahead:

| SF250μM (stabilization factor) | SMILES |
| --- | --- |
| 16 | O=Cc1ccc(-n2ccnc2-c2ccc(N3CCOCC3)cc2)cc1Br [Compound 23] |
| 19 | O=Cc1ccc(-n2c(-c3ccc(OCCO)cc3)nc3ccccc32)cc1Br [Compound 31] |
| 20 | O=Cc1ccc(-n2c(-c3cccnc3)nc3ccccc32)cc1Br [Compound 2] |
| 11 | Cc1ccccc1-c1nccn1-c1ccc(C=O)c(Br)c1 [Compound 3] |
| 7.5 | O=Cc1ccc(-n2ccnc2-c2ccccc2Cl)cc1Br [Compound 5] |

Same assay, conditions: screening hits

| stabilization of the 14-3-3ζ/Tau pS2 peptide complex [fold] | SMILES |
| --- | --- |
| 20 | O=Cc1ccc(-n2c(-c3cccnc3)nc3ccccc32)cc1Br [Compound 2] |

Target: 14-3-3ζ
Assay: not given
Parameters: method as in doi:10.1101/2024.03.15.585148
Conditions: FA assay; read-out: KD of monovalent Tau peptide to 14-3-3ζ; cited from earlier work

| SMILES | Kd [µM] |
| --- | --- |
| CC[C@H](C)[C@H](NC(=O)[C@H](CC(N)=O)NC(=O)CNC(=O)[C@H](CC(C)C)NC(=O)[C@H](COP(=O)(O)O)NC(=O)CNC(=O)[C@H](CS)NC(=O)[C@H](CCCCN)NC(=O)[C@H](CO)NC(=O)[C@@H](NC(=O)[C@@H](NC(C)=O)C(C)C)[C@@H](C)O)C(=O)N[C@@H](Cc1c[nH]cn1)C(=O)N[C@@H](Cc1c[nH]cn1)C(=O)N[C@@H](CCCCN)C(=O)O [Tau pS324] (Ac-VTSKCG[pS]LGNIHHK-OH; C-terminus assumed) | > 100 |
| CC(=O)N[C@@H](CO)C(=O)N[C@@H](CCCNC(=N)N)C(=O)N[C@H](C(=O)N1CCC[C@H]1C(=O)N[C@@H](COP(=O)(O)O)C(=O)N[C@@H](CC(C)C)C(=O)N1CCC[C@H]1C(=O)N[C@H](C(=O)N1CCC[C@H]1C(=O)N1CCC[C@H]1C(=O)N[C@H](C(=O)N[C@@H](CCCNC(=N)N)C(=O)N[C@@H](CCC(=O)O)C(=O)O)[C@@H](C)O)[C@@H](C)O)[C@@H](C)O [Tau pS214] (Ac-SRTP[pS]LPTPPTRE-OH; C-terminus assumed) | > 100 |

Target: T1, 14-3-3ζ/Tau pS2 peptide interaction
Assay: Fluorescence anisotropy compound titration to preformed 14-3-3ζ/Tau pS2 peptide complex
Assay type: binding
Conditions: FA
Description: With the compound library constructed, we sought to screen the stabilizing activity of the imidazole analogs for the 14-3-3ζ/Tau pS2 peptide interaction. In this regard, a fluorescence anisotropy (FA) assay was performed where each individual compound was titrated against a fixed concentration of 14-3-3ζ (100 nM) and fluorescein-labelled Tau pS2 peptide (10 nM; Fig. 3a and b, ESI ^† Fig. S4 and S5, Table 1, ESI ^† Table S1). Thereby, the fixed 14-3-3ζ concentration was based on the EC20 value of the binary complex formation to enable a sufficient dynamic window for ternary complex formation. […] For each compound dose–response curve, the background signal (titration without 14-3-3ζ) was subtracted, to exclude possible false positive results. […]
chromatography (HisTrap high performance cartridges, Cytiva). […] Dialyzed protein was concentrated to ∼40 mg/mL, analyzed by Q -Tof LC/MS, and aliquots were flash -frozen for storage at −80 °C. […] Fractions containing the 14 -3-3 protein were pooled and concentrated to ∼60 mg/mL, analyzed Q -Tof LC/MS, and aliquots were flash -frozen for storage at −80°C.
as §1
as §2, with “Dilution series were made in polystyrene low -volume 384 -well plates (Corning #4514, Black Round Bottom).” left out, “Wells containing only fluorescein labelled peptide were used to set as G -factor calibrated from these wells.” left out, “All data shown is background corrected for the signal without 14 -3-3ζ and the mean and standard deviation of technical duplicate is plotted, assay performed in a scientific duplicate for hit compounds.” left out

| SMILES | PPI stabilizing activity (in words) |
| --- | --- |
| O=Cc1ccc(-n2ccnc2-c2cccc(O)c2)cc1Br [Compound 9] | slightly inhibited 14-3-3ζ/Tau pS2 peptide complex formation |
| O=Cc1ccc(-n2ccnc2-c2ccc(OCCO)cc2)cc1Br [Compound 24] | did not show an improvement in PPI stabilization |
| CC(C)c1ccc(-c2nccn2-c2ccc(C=O)c(Br)c2)cc1 [Compound 19] | completely diminished PPI stabilization |
